Measurements as given in patent publication US11524966B1 (Valo Early Discovery, Inc., priority 2017, dated 2022).

Each compound was assayed against T1, USP28 (USP28-5(1-1077)-TEV-6*His; LifeSensors) (Homo sapiens, UniProt Q96RU2) (assay: Ubiquitin-Rhodamine 110 Assay for USP28 Activity, Example A-1(b)). Settings: Ubiquitin-Rhodamine 110 assay, Example A-1(b).
T1 construct: construct USP28 (USP28-5(1-1077)-TEV-6*His; LifeSensors); TEV cleavage site (C); 6xHis (C); purchased LifeSensors
T1 sequence (Q96RU2 1-1077): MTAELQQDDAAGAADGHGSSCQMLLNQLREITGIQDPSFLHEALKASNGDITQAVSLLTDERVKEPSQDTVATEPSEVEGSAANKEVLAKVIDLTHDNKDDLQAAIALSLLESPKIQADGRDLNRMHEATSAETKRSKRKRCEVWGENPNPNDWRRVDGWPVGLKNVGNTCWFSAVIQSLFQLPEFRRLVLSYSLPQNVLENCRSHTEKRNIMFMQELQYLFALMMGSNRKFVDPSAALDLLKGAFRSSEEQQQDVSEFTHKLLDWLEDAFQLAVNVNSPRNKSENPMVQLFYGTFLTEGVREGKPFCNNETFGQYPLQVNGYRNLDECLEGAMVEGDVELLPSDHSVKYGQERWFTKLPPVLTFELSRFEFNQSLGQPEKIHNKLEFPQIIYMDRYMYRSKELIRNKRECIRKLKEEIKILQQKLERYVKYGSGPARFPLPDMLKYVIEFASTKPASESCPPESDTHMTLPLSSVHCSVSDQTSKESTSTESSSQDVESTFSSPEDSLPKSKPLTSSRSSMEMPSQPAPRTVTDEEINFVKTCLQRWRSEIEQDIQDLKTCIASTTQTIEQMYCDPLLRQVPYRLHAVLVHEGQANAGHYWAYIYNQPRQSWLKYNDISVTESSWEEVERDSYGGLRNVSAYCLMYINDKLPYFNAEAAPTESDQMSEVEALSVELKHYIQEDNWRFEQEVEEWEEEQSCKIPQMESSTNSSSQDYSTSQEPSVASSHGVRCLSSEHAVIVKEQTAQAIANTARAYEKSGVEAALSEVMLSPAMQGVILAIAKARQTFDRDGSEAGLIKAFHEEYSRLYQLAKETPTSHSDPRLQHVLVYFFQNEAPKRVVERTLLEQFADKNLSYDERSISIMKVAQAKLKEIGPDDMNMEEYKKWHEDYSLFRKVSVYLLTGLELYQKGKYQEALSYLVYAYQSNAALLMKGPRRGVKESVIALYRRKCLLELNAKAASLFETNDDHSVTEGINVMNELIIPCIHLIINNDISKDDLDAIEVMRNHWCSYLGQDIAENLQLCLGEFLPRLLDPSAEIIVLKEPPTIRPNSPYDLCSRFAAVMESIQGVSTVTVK
Assay type: biochemical
How it was run: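 Single-point screening used 10 μM compound with 90 min room-temperature incubation; follow-up dose-responses (25 μM top, 3-fold) used 75 pM USP28 1-1077 construct, 30 min compound preincubation, 25 nM Ub-Rh110, 20 min reaction, citric acid quench. Rh110 fluorescence normalised to no-enzyme and DMSO controls; IC50 from 4-parameter logistic fit.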

Row | Structure (SMILES) | USP28 A-1(b) IC50 range
1 | Cc1ccc2c(N)c(C(=O)N[C@H]3CCc4cc(N5CCNCC5)cc(F)c4C3)sc2n1 (single isomer, unassigned) [Example 11-11] | + (>2 μM)
2 | Cc1ccc2c(N)c(C(=O)N[C@H]3CCc4cc(N5CCN[C@H](CO)C5)ccc4C3)sc2n1 (single isomer, unassigned) [Example 7-8] | + (>2 μM)
3 | Cc1ccc2c(N)c(C(=O)N[C@H]3CCc4cc(N5CCN[C@@H](CO)C5)ccc4C3)sc2n1 (single isomer, unassigned) [Example 7-9] | + (>2 μM)
4 | Cc1ccc2c(N)c(C(=O)N[C@@H]3COc4cc(N5CCNCC5)cc(F)c4C3)sc2n1 [Example 10-5, (S)-3-amino-N-(5-fluoro-7-(piperazin-1-yl)chroman-3-yl)-6-methylthieno[2,3-b]pyridine-2-carboxamide] | + (>2 μM)
5 | Cc1cnc2c(N)c(C(=O)N[C@@H]3CCc4cc(N5CCNC[C@@H](O)C5)ccc4C3)sc2n1 (single isomer, unassigned) [Example 7-5] | ++ (0.2-2 μM)
6 | Cc1ccc2c(N)c(C(=O)N[C@H]3COc4cc(N5CC6CNCC(C5)O6)cc(F)c4C3)sc2n1 [Example 10-6, N-((3R)-7-(9-oxa-3,7-diazabicyclo[3.3.1]nonan-3-yl)-5-fluorochroman-3-yl)-3-amino-6-methylthieno[2,3-b]pyridine-2-carboxamide] | ++++ (0.001-0.05 μM)
7 | Cc1cnc2c(N)c(C(=O)N[C@@H]3CCc4cc(N5CC6CCC(C5)N6)cc(F)c4C3)sc2n1 (single isomer, unassigned) [Example 11-14] | +++ (0.05-0.2 μM)
8 | Cc1cnc2c(N)c(C(=O)N[C@@H]3CCc4cc(N5CC6CCC(C5)N6)ccc4C3)sc2n1 (single isomer, unassigned) [Example 11-8] | + (>2 μM)
9 | Cc1ccc2c(N)c(C(=O)N[C@@H]3COc4cc(N5CCNCC5)ccc4[C@@H]3C)sc2n1 (single isomer, unassigned) [Example 11-18] | + (>2 μM)
10 | COc1ccc2c(N)c(C(=O)N[C@H]3COc4cc(N5CCNCC5)cc(F)c4C3)sc2n1 [Example 10-11, (R)-3-amino-N-(5-fluoro-7-(piperazin-1-yl)chroman-3-yl)-6-methoxythieno[2,3-b]pyridine-2-carboxamide] | ++ (0.2-2 μM)
11 | Cc1cnc2c(N)c(C(=O)N[C@H]3COc4cc(N5CCNCC5)cc(F)c4C3)sc2n1 [Example 10-10, (R)-7-amino-N-(5-fluoro-7-(piperazin-1-yl)chroman-3-yl)-3-methylthieno[2,3-b]pyrazine-6-carboxamide] | +++ (0.05-0.2 μM)
12 | Cc1ccc2c(N)c(C(=O)N[C@H]3CCc4cc(N5CC6CCC(C5)N6)ccc4C3)sc2n1 [Example 11-1, N-((2S)-6-(3,8-diazabicyclo[3.2.1]octan-3-yl)-1,2,3,4-tetrahydronaphthalen-2-yl)-3-amino-6-methylthieno[2,3-b]pyridine-2-carboxamide] | +++ (0.05-0.2 μM)
13 | Cc1ccc2c(N)c(C(=O)N[C@H]3COc4cc(O[C@H]5COC6(CNC6)C5)ccc4C3)sc2n1 (single isomer, unassigned) [Example 9-2] | +++ (0.05-0.2 μM)
14 | Cc1ccc2c(N)c(C(=O)N[C@H]3COc4cc(C5(F)CCNCC5)ccc4C3)sc2n1 [Example 8-1, (R)-3-Amino-N-(7-(4-fluoropiperidin-4-yl)chroman-3-yl)-6-methylthieno[2,3-b]pyridine-2-carboxamide] | ++++ (0.001-0.05 μM)
15 | CCn1ccc2cc(C(=O)N[C@@H]3CCc4cc(N5CC6CCC(C5)N6)ccc4C3)cnc21 (single isomer, unassigned) [Example 11-10] | ++ (0.2-2 μM)
16 | Cc1cc(C)c2c(N)c(C(=O)N[C@H]3COc4cc(N5CC6CC(C5)N6)cc(F)c4C3)sc2n1 [Example 10-7, N-((3R)-7-(3,6-diazabicyclo[3.1.1]heptan-3-yl)-5-fluorochroman-3-yl)-3-amino-4,6-dimethylthieno[2,3-b]pyridine-2-carboxamide] | +++ (0.05-0.2 μM)
17 | Cc1ccc2c(N)c(C(=O)N[C@H]3COc4cc(N5CCNCC5)cc(F)c4C3)sc2n1 [Example 10-1, (R)-3-amino-N-(5-fluoro-7-(piperazin-1-yl)chroman-3-yl)-6-methylthieno[2,3-b]pyridine-2-carboxamide] | +++ (0.05-0.2 μM)
18 | Cc1cc(C)c2c(N)c(C(=O)N[C@H]3COc4cc(N5CC6CNCC(C5)O6)cc(F)c4C3)sc2n1 [Example 10-13, N-((3R)-7-(9-oxa-3,7-diazabicyclo[3.3.1]nonan-3-yl)-5-fluorochroman-3-yl)-3-amino-4,6-dimethylthieno[2,3-b]pyridine-2-carboxamide] | ++++ (0.001-0.05 μM)
19 | Cc1cnc2c(N)c(C(=O)N[C@H]3CCc4cc(N5CCNC[C@@H](O)C5)ccc4C3)sc2n1 (single isomer, unassigned) [Example 7-4] | ++ (0.2-2 μM)
20 | Cc1ccc2c(N)c(C(=O)N[C@@H]3CCc4cc(N5CCNCC5)cc(F)c4C3)sc2n1 (single isomer, unassigned) [Example 11-12] | ++ (0.2-2 μM)
21 | COc1ccc2c(N)c(C(=O)N[C@H]3CCc4cc(N5CC6CCC(C5)N6)ccc4C3)sc2n1 (single isomer, unassigned) [Example 11-5] | ++ (0.2-2 μM)

Same assay, conditions: Ubiquitin-Rhodamine 110 assay, format Example A-1(b)

Row | Structure (SMILES) | USP28 A-1(b) IC50 range
22 | Cc1ccc2c(N)c(C(=O)N[C@H]3COc4cc(N5CC6CCC(C5)N6)c(F)c(F)c4C3)sc2n1 [Example 13-3, N-((3R)-7-(3,8-diazabicyclo[3.2.1]octan-3-yl)-5,6-difluorochroman-3-yl)-3-amino-6-methylthieno[2,3-b]pyridine-2-carboxamide] | + (>2 μM)
23 | Cc1ccc2c(N)c(C(=O)N[C@@H]3CCc4cc(N5CCNCC5)cnc4C3)sc2n1 (single isomer, unassigned) [Example 15-1] | + (>2 μM)
24 | Cc1ccc2c(N)c(C(=O)N[C@@H]3COc4c(ccc(N5CCNCC5)c4Cl)C3)sc2n1 [Example 13-8, (S)-3-amino-N-(8-chloro-7-(piperazin-1-yl)chroman-3-yl)-6-methylthieno[2,3-b]pyridine-2-carboxamide] | + (>2 μM)
25 | Cc1ccc2c(N)c(C(=O)N[C@@H]3COc4cc(N5CCNCC5)c(Cl)cc4C3)sc2n1 (single isomer, unassigned) [Example 13-6] | +++ (0.05-0.2 μM)
26 | Cc1ccc2c(N)c(C(=O)N[C@H]3CCc4cc(N5CCNCC5)c(F)cc4C3)sc2n1 (single isomer, unassigned) [Example 21-8] | + (>2 μM)
27 | Cc1ccc2c(N)c(C(=O)N[C@H]3COc4c(ccc(N5CCNCC5)c4Cl)C3)sc2n1 [Example 13_7, (R)-3-amino-N-(8-chloro-7-(piperazin-1-yl)chroman-3-yl)-6-methylthieno[2,3-b]pyridine-2-carboxamide] | +++ (0.05-0.2 μM)
28 | Cc1ccc2c(N)c(C(=O)N[C@H]3CCc4c(F)c(N5CCNCC5)cc(F)c4C3)sc2n1 (single isomer, unassigned) [Example 22-1] | ++ (0.2-2 μM)
29 | Cc1ccc2c(N)c(C(=O)N[C@H]3COc4c(F)c(N5CC6CCC(C5)N6)cc(F)c4C3)sc2n1 (single isomer, unassigned) [Example 13-1] | ++++ (0.001-0.05 μM)
30 | Cc1ccc2c(N)c(C(=O)N[C@@H]3CCc4cc(N5CC6CCC(C5)N6)c(F)cc4C3)sc2n1 (single isomer, unassigned) [Example 21-3] | ++++ (0.001-0.05 μM)
31 | Cc1ccc2c(N)c(C(=O)N[C@H]3CCc4cc(N5C6CNCC5C6)ccc4C3)sc2n1 (single isomer, unassigned) [Example 11-35] | ++ (0.2-2 μM)
